Tests used:
WT virus = assay: Susceptibility of virus to NRTIs (antiviral potency), Example 1; type: cell-based, HIV-1; conditions: for EC50: Human immunodeficiency virus 1
Procedure: (§1) Common doravirine-associated mutants containing F227C substitution were derived from SDM. The experimental conditions for susceptibility evaluation are described in Lai, Ming-Tain, et al., In Vitro Characterization of MK-1439, a Novel HIV-1 Nonnucleoside Reverse Transcriptase Inhibitor. Antimicrobial Agents and Chemotherapy 58(3): 1652-1663, 2014. These mutants conferred more than 100-fold of resistance to DOR. The susceptibility of the mutants to EFdA and 3TC was also evaluated under the same conditions. […] In contrast, the mutants are hypersusceptible to EFdA with 2-5 fold increase in susceptibility with all mutants except the quardruple mutant.

[1] = system: A98G/V106I/H221Y/F227C mutant; assay: Susceptibility of SDM derived DOR-resistant mutant to NRTIs, Example 1; type: cell-based, HIV-1; conditions: for EC50: Human immunodeficiency virus 1, read-out: Antiviral Potency
Procedure: as §1

F227C mutant = assay: as above; type: cell-based, HIV-1; conditions: for EC50: Human immunodeficiency virus 1, read-out: Antiviral Potency
Procedure: as §1

V106I/F227C mutant = assay: as above; type: cell-based, HIV-1; conditions: for EC50: Human immunodeficiency virus 1, read-out: Antiviral Potency
Procedure: as §1

A98G/F227C mutant = assay: as above; type: cell-based, HIV-1; conditions: for EC50: Human immunodeficiency virus 1, read-out: Antiviral Potency (nM)
Excerpt: (§2) Common doravirine-associated mutants containing F227C substitution were derived from SDM.

V106I/F227C/H221Y mutant = assay: as above; type: cell-based, HIV-1; conditions: for EC50: Human immunodeficiency virus 1, read-out: Antiviral Potency
Excerpt: as §2

V106M/F227C mutant = assay: as above; type: cell-based, HIV-1; conditions: for EC50: Human immunodeficiency virus 1, read-out: Antiviral Potency
Excerpt: as §2

K103N mutant virus [2] = assay: Suppression of virus replication in vitro in 100% normal human serum; inhibitory quotient; type: cell-based, HIV-1; conditions: ratio of clinical trough concentration over antiviral EC50
Procedure: (§3) In addition, the susceptibility of a broader array of clinical-NNRTI-associated mutant viruses (a total of 96 viruses) to doravirine and other benchmark NNRTIs was investigated. […] See Lai, Ming-Tain, et al., In Vitro Characterization of MK-1439, a Novel HIV-1 Nonnucleoside Reverse Transcriptase Inhibitor. Antimicrobial Agents and Chemotherapy 58(3): 1652-1663, 2014.
(§4) Inhibitory quotients (IQs) were calculated by determining the ratio of the clinical trough concentration over the antiviral EC50 of various viruses. IQs have been employed to predict the potential efficacy of anti-viral agents.

K103N/Y181C mutant virus [3] = assay: as above; type: cell-based, HIV-1; conditions: ratio of clinical trough concentration over antiviral EC50
Procedure: as §3, §4

Y181C mutant virus [4] = assay: as above; type: cell-based, HIV-1; conditions: ratio of clinical trough concentration over antiviral EC50
Procedure: as §3, §4

[5] = system: other prevalent NNRTI-associated mutants; assay: Inhibitory quotients against other NNRTI-associated mutants; type: cell-based, HIV-1; conditions: with the exception of Y188L
Procedure: as §4

wild type (WT) virus = conditions: 100% normal human serum (NHS), read-out: EC50 suppressing replication; cited from earlier work
K103N mutant virus [6] = conditions: 100% normal human serum (NHS), read-out: EC50 suppressing replication; cited from earlier work
Y181C mutant virus [7] = conditions: 100% normal human serum (NHS), read-out: EC50 suppressing replication; cited from earlier work
K103N/Y181C mutant virus [8] = conditions: 100% normal human serum (NHS), read-out: EC50 suppressing replication; cited from earlier work
[9] = system: clinical-NNRTI-associated mutant viruses (a total of 96 viruses); conditions: 96 clinical NNRTI-associated mutant viruses; cited from earlier work
HIV-1 [10] = conditions: escalating concentrations of DOR; cited from earlier work
[11] = system: Common doravirine-associated mutants containing F227C substitution; assay: Susceptibility of the SDM derived doravirine-associated mutants as a group; type: cell-based, HIV-1
Procedure: Site-directed mutagenesis (SDMs) were generated for the substitutions V1061/F227C, V1061/H221Y/F227C, A98G/V1061/H221Y/F227C, and V106M/F227C and their susceptibility to NNRTIs was evaluated. Most of the mutants conferred a high level of resistance to DOR with a fold change (FC)>100 (FC: mutantEC50 versus WTEC50).
FIG. 1. Susceptibility of SDM derived DOR-resistant clinical mutants to NRTIs. […] In contrast, the mutants are hypersusceptible to EFdA with 2-5 fold increase in susceptibility except the quardruple mutant.
as §1

HIV-1 [12] = assay: Proof of concept study in HIV-1 infected patients; type: in vivo, human; conditions: single dose as low as 0.5 mg
Procedure: EFdA was tested in HIV-1 infected patients for a proof of concept study.

HIV = conditions: compared with EFddA lacking a 3′-OH; cited from earlier work

Which “Fold-change (EC50mut/WT EC50wt)” value (WT virus) does the source give for `Nc1ccn([C@@H]2CS[C@H](CO)O2)c(=O)n1` [3TC, lamivudine, reference compound] here?
The value was 1.0.

What about the EC50 (WT virus) of the same compound?
Its EC50 is 601 ± 142 nM.

And the “Fold-change (EC50mut/WT EC50wt)” value [1]?
The value was 1.93.

What about the EC50 [1] of the same compound?
The EC50 was 1160 ± 314 nM.

And the “Fold-change (EC50mut/WT EC50wt)” value (F227C mutant)?
Its value is 2.26.

What about the EC50 (F227C mutant) of the same compound?
The EC50 was 1360 ± 94 nM.

And the “Fold-change (EC50mut/WT EC50wt)” value (V106I/F227C mutant)?
The value was 1.15.

What about the EC50 (V106I/F227C mutant) of the same compound?
The EC50 was 692 ± 212 nM.

And the EC50 (A98G/F227C mutant)?
The EC50 was 809 ± 146 nM.

What about the EC50 (V106I/F227C/H221Y mutant) of the same compound?
The EC50 was 758 ± 244 nM.

What about the EC50 (V106M/F227C mutant) of the same compound?
Its EC50 is 771 ± 62 nM.

Which “Inhibitory quotient (IQ)” value (K103N mutant virus [2]) does the source give for `Cn1c(Cn2ccc(C(F)(F)F)c(Oc3cc(Cl)cc(C#N)c3)c2=O)n[nH]c1=O` [Doravirine] here?
Its value is 39.

What about the “Inhibitory quotient (IQ)” value (K103N/Y181C mutant virus [3]) of the same compound?
Its value is 25.

And the “Inhibitory quotient (IQ)” value (Y181C mutant virus [4])?
Its value is 27.

What about the “IQ values compared with RPV and EFV” value [5] of the same compound?
The value was “higher IQ values than RPV and EFV”.

What about the EC50 (wild type (WT) virus) of the same compound?
Its EC50 is 12 nM.

And the EC50 (K103N mutant virus [6])?
Its EC50 is 21 nM.

And the EC50 (Y181C mutant virus [7])?
Its EC50 is 31 nM.

And the EC50 (K103N/Y181C mutant virus [8])?
The EC50 was 33 nM.

And the “mutant profile versus benchmark NNRTIs” value [9]?
Its value is “superior overall to that of efavirenz (EFV) and comparable to that of etravirine (ETR) and rilpivirine (RPV)”.

What about the “mutations emerging in resistance selection” value (HIV-1 [10]) of the same compound?
The value was “V106A mutant led two mutation pathways, followed by the emergence of F227L and L234I substitutions”.

Which results are given for `O=C1Nc2ccc(Cl)cc2[C@@](C#CC2CC2)(C(F)(F)F)O1` [EFV, efavirenz]?
Inhibitory quotient (IQ) (K103N mutant virus [2]): 2.5; Inhibitory quotient (IQ) (K103N/Y181C mutant virus [3]): 1.9; Inhibitory quotient (IQ) (Y181C mutant virus [4]): 60

What does the source list for `C#C[C@]1(CO)O[C@@H](n2cnc3c(N)nc(F)nc32)C[C@@H]1O` [EFdA, 4′-ethynyl-2-fluoro-2′-deoxyadenosine]?
Fold-change (EC50mut/WT EC50wt) (WT virus): 1.0; EC50 (WT virus): 0.81 ± 0.029 nM; Fold-change (EC50mut/WT EC50wt) [1]: 1.00; EC50 [1]: 0.81 ± 0.124 nM; Fold-change (EC50mut/WT EC50wt) (F227C mutant): 0.18; EC50 (F227C mutant): 0.15 ± 0.026 nM; Fold-change (EC50mut/WT EC50wt) (V106I/F227C mutant): 0.44; EC50 (V106I/F227C mutant): 0.35 ± 0.048 nM; Fold-change (EC50mut/WT EC50wt) (A98G/F227C mutant; A98G/F227C): 0.18; EC50 (A98G/F227C mutant): 0.15 ± 0.026 nM; Fold-change (EC50mut/WT EC50wt) (V106I/F227C/H221Y mutant): 0.49; EC50 (V106I/F227C/H221Y mutant): 0.4 ± 0.075 nM; Fold-change (EC50mut/WT EC50wt) (V106M/F227C mutant): 0.37; EC50 (V106M/F227C mutant): 0.3 ± 0.048 nM; susceptibility / potency of mutants compared with WT virus ([11]; mutants containing F227C substitution): better potency compared to WT virus; fold increase in susceptibility (hypersusceptible) ([11]; {}): 2-5 fold; duration of suppression of HIV replication (HIV-1 [12]): at least seven days; antiviral activity relative to EFddA (HIV): 10,000 times

Which “Inhibitory quotient (IQ)” value (K103N mutant virus [2]) does the source give for `Cc1cc(/C=C/C#N)cc(C)c1Nc1ccnc(Nc2ccc(C#N)cc2)n1` [RPV, rilpivirine] here?
The value was 4.6.

And the “Inhibitory quotient (IQ)” value (K103N/Y181C mutant virus [3])?
Its value is 0.8.

And the “Inhibitory quotient (IQ)” value (Y181C mutant virus [4])?
The value was 1.4.

— patent US12005072B2, “HIV drug combination for increasing barrier against resistance” (Merck Sharp & Dohme LLC, priority 2018, dated 2024)
